Where only a bound is given, the exact number is not on record here.

Sequence of hPAD4 enzyme (Q9UM07 whole entry): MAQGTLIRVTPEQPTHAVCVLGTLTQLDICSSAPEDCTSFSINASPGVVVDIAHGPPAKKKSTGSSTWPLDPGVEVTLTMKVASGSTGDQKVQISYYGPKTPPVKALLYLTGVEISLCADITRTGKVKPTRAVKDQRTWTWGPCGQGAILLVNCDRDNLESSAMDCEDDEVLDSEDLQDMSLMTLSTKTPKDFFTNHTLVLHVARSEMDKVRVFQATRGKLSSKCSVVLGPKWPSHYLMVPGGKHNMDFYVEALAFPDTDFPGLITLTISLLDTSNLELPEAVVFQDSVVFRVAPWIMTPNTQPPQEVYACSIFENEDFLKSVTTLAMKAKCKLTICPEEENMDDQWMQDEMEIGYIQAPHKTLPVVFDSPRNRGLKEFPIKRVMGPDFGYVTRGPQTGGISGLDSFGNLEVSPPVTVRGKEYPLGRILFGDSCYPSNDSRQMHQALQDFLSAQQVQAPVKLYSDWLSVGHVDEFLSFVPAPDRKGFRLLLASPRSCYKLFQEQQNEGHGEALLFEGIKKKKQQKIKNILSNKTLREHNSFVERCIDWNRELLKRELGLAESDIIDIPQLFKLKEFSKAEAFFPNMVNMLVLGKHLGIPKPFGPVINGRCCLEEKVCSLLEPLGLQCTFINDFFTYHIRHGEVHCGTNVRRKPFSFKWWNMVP

The target of this experiment is hPAD4 enzyme (Homo sapiens (Human), UniProt Q9UM07). The experiment in a line: RFMS2 assay (RapidFire mass spectrometry, TSTGGRQGSHH peptide substrate). It is filed as biochemical. As to conditions: 35 nM recombinant human PAD4, 500 μM TSTGGRQGSHH peptide, 30 minutes at room temperature; read-out: RFMS 2 IC50. The procedure:
Stock compounds were dissolved and stored in 100% DMSO. Compound solutions were prepared via serial dilution at 3-fold intervals in DMSO with top compound concentration at 20 μM in each assay. 0.25 μl of compound solution was transferred from the compound plate to the assay plate by using an acoustic dispenser.
• Total reaction volume: 25 μl • Assay buffer: […] pH 7.4, 200 mM NaCl, 2 mM CaCl2, 5 mM DTT • 35 nM recombinant human PAD4 • 500 μM TSTGGRQGSHH peptide • 1.2% DMSO • Stop solution: 10% formic acid
Reaction mixtures were incubated at room temperature for 30 minutes. 10 μl each of the reaction mixtures was then mixed with 40 μl of 10% formic acid in a microtiter plate. The plate was frozen at −80° C. before shipping out on dry ice for RapidFire mass spectroscopy analysis.
Thawed samples were loaded onto the Rapid Fire 300 system (Agilent) wherein they were first sipped for 250 ms and then loaded onto a Agilent “C” (C18) cartridge using a mobile phase of water containing 0.09% formic acid/0.01% trifluoroacetic acid for 3000 ms desalting flowing at a rate of 1.5 ml/min. Once the samples were loaded and washed, a mobile phase of acetonitrile containing 0.09% formic acid/0.01% trifluoroacetic acid was used to elute the samples directly onto a Sciex API4000 triple quadrupole mass spectrometer for 3000 ms at a flow rate of 1.25 ml/min.
MRM transitions for substrate and product were monitored in positive ESI mode at m/z=562.3/969.7 and m/z=562.8/541.3 respectively. The dwell time for each transition was set at 100 ms, and the ESI voltage was used at 5500 with a source temperature of 650° C. Extracted ion peaks for each transition were integrated using the Rapid Fire Integrator software.
Compounds having an activity designated as “A” provided an IC50≤10 nM; compounds having an activity designated as “B” provided an IC50 11-100 nM; compounds having an activity designated as “C” provided an IC50 101-500 nM; compounds having an activity designated as “D” provided an IC50 501-1000 nM; compounds having an activity designated as “E” provided an IC50>1000 nM.
As for `COCCn1c(-c2nc3cc4c(cc3n2C)CCN(C[C@@H](C)N)C4=O)cc2cccc(OC)c21` [Example 88, (R)-6-(2-aminopropyl)-2-(7-methoxy-1-(2-methoxyethyl)-1H-indol-2-yl)-1-methyl-1,6,7,8-tetrahydro-5H-imidazo[4,5-g]isoquinolin-5-one], the half-maximal inhibitory concentration (IC50) was 101 to 500 nM. For the compound `Cn1c(-c2cc3cccc(OCC4CCOCC4)c3n2CC2CC2)nc2cc3c(cc21)CCN(C[C@H](N)CF)C3=O` [Example 161, (S)-6-(2-amino-3-fluoropropyl)-2-(1-(cyclopropylmethyl)-7-((tetrahydro-2H-pyran-4-yl)methoxy)-1H-indol-2-yl)-1-methyl-1,6,7,8-tetrahydro-5H-imidazo[4,5-g]isoquinolin-5-one], the half-inhibitory concentration (IC50) lay within 501 to 1000 nM. On to `Cn1c(-c2cc3cccc(OCc4ccnnc4)c3n2CC2CC2)nc2cc3c(cc21)CCN(C[C@H](N)CF)C3=O` [Example 171, (S)-6-(2-amino-3-fluoropropyl)-2-(1-(cyclopropylmethyl)-7-(pyridazin-4-ylmethoxy)-1H-indol-2-yl)-1-methyl-1,6,7,8-tetrahydro-5H-imidazo [4,5-g]isoquinolin-5-one], for which the IC50 was in the range of 101 to 500 nM. Under `C[C@@H](CCO)Oc1cccc2cc(-c3nc4cc5c(cc4n3C)CCN(C[C@H](N)CF)C5=O)n(CC3CC3)c12` [Example 191, 6-((S)-2-amino-3-fluoropropyl)-2-(1-(cyclopropylmethyl)-7-(((S)-4-hydroxybutan-2-yl)oxy)-1H-indol-2-yl)-1-methyl-1,6,7,8-tetrahydro-5H-imidazo[4,5-g]isoquinolin-5-one] stands 101 to 500 nM; under `C[C@@H](N)CN1CCc2cc3c(cc2C1=O)nc(-c1cc2cc(Cl)ccc2n1CC1CC1)n3C` [Example 34, (R)-6-(2-aminopropyl)-2-(5-chloro-1-(cyclopropylmethyl)-1H-indol-2-yl)-1-methyl-1,6,7,8-tetrahydro-5H-imidazo[4,5-g]isoquinolin-5-one], 501 to 1000 nM.

Take `Cn1c(-c2cc3cccc(OCC4(C)CNC(=O)C4)c3n2CC2CC2)nc2cc3c(cc21)CCN(C[C@H](N)CF)C3=O` (single isomer, unassigned) [Example 221]: the IC50 fell in the range of 101 to 500 nM.

Take `Cn1c(-c2cc3cccc(OCC4COC4)c3n2CC2CC2)nc2cc3c(cc21)CCN(C[C@H](N)CF)C3=O` [Example 149, (S)-6-(2-amino-3-fluoropropyl)-2-(1-(cyclopropylmethyl)-7-(oxetan-3-ylmethoxy)-1H-indol-2-yl)-1-methyl-1,6,7,8-tetrahydro-5H-imidazo[4,5-g]isoquinolin-5-one]: the IC50 was in the range of 101 to 500 nM.

On to `CC(C)c1cccc2cc(-c3nc4cc5c(cc4n3C)CCN(C[C@@H](C)N)C5=O)n(CC3CC3)c12` [Example 19, (R)-6-(2-aminopropyl)-2-(1-(cyclopropylmethyl)-7-isopropyl-1H-indol-2-yl)-1-methyl-1,6,7,8-tetrahydro-5H-imidazo[4,5-g]isoquinolin-5-one], for which the IC50 fell in the range of 101 to 500 nM. In the case of `COCCn1c(-c2nc3cc4c(cc3n2C)CCN(C[C@H](N)CF)C4=O)cc2ccc(OC)cc21` [Example 103, (S)-6-(2-amino-3-fluoropropyl)-2-(6-methoxy-1-(2-methoxyethyl)-1H-indol-2-yl)-1-methyl-1,6,7,8-tetrahydro-5H-imidazo[4,5-g]isoquinolin-5-one] it was 501 to 1000 nM; in that of `COCC(C)n1c(-c2nc3cc4c(cc3n2C)CCN(C[C@H](N)CF)C4=O)cc2cccc(OC)c21` (single isomer, unassigned) [Example 123a], above 1000 nM. As for `C[C@@H](N)CN1CCc2cc3c(cc2C1=O)nc(-c1cc2ccccc2n1CC1CCCC1)n3C` [Example 72, (R)-6-(2-aminopropyl)-2-(1-(cyclopentylmethyl)-1H-indol-2-yl)-1-methyl-1,6,7,8-tetrahydro-5H-imidazo[4,5-g]isoquinolin-5-one], the IC50 lay within 101 to 500 nM. Under `COc1cccc2cc(-c3nc4cc5c(cc4n3C)CCN(C[C@H](N)CF)C5=O)n(Cc3ccoc3)c12` [Example 138, (S)-6-(2-amino-3-fluoropropyl)-2-(1-(furan-3-ylmethyl)-7-methoxy-1H-indol-2-yl)-1-methyl-1,6,7,8-tetrahydro-5H-imidazo[4,5-g]isoquinolin-5-one] stands 101 to 500 nM. In the case of `CCn1c(-c2nc3cc4c(cc3n2C)CCN(C[C@@H](C)N)C4=O)cc2cccc(OC)c21` [Example 90, (R)-6-(2-aminopropyl)-2-(1-ethyl-7-methoxy-1H-indol-2-yl)-1-methyl-1,6,7,8-tetrahydro-5H-imidazo[4,5-g]isoquinolin-5-one] it was 101 to 500 nM; in that of `COc1ccc2cc(-c3nc4cc5c(cc4n3C)CCN(C[C@H](N)CF)C5=O)n(CC3CC3)c2n1` [Example 62, (S)-6-(2-amino-3-fluoropropyl)-2-(1-(cyclopropylmethyl)-6-methoxy-1H-pyrrolo[2,3-b]pyridin-2-yl)-1-methyl-1,6,7,8-tetrahydro-H-imidazo[4,5-g]isoquinolin-5-one], 101 to 500 nM; in that of `Cn1c(-c2cc3ccccc3n2CC2CCC2)nc2cc3c(cc21)CCN(C[C@H](N)CF)C3=O` [Example 101, (S)-6-(2-amino-3-fluoropropyl)-2-(1-(cyclobutylmethyl)-1H-indol-2-yl)-1-methyl-1,6,7,8-tetrahydro-5H-imidazo[4,5-g]isoquinolin-5-one], 101 to 500 nM.

Take `Cn1c(-c2cc3ccc(Cl)nc3n2CC2CC2)nc2cc3c(cc21)CCN(C[C@H](N)CF)C3=O` [Example 56, (S)-6-(2-amino-3-fluoropropyl)-2-(6-chloro-1-(cyclopropylmethyl)-1H-pyrrolo[2,3-b]pyridin-2-yl)-1-methyl-1,6,7,8-tetrahydro-5H-imidazo[4,5-g]isoquinolin-5-one]: the IC50 was in the range of 101 to 500 nM. For the compound `CCn1c(-c2nc3cc4c(cc3n2C)CCN(C[C@H](N)CF)C4=O)cc2cccc(OC)c21` [Example 107, (S)-6-(2-amino-3-fluoropropyl)-2-(1-ethyl-7-methoxy-1H-indol-2-yl)-1-methyl-1,6,7,8-tetrahydro-5H-imidazo[4,5-g]isoquinolin-5-one], the IC50 is 501 to 1000 nM. Under `C[C@@H](N)CN1CCc2cc3c(cc2C1=O)nc(-c1cc2ccc(Cl)nc2n1CC1CC1)n3C` [Example 43, (R)-6-(2-aminopropyl)-2-(6-chloro-1-(cyclopropylmethyl)-1H-pyrrolo[2,3-b]pyridin-2-yl)-1-methyl-1,6,7,8-tetrahydro-5H-imidazo[4,5-g]isoquinolin-5-one] stands 101 to 500 nM. In the case of `Cn1c(-c2cc3ccccc3n2CC2CC2)nc2cc3c(cc21)CCN(CC(N)CC(F)(F)F)C3=O` (centres unmarked) [Example 7, 6-(2-amino-4,4,4-trifluorobutyl)-2-(1-(cyclopropylmethyl)-1H-indol-2-yl)-1-methyl-1,6,7,8-tetrahydro-5H-imidazo[4,5-g]isoquinolin-5-one] it was above 1000 nM. Under `C[C@H](CCO)Oc1cccc2cc(-c3nc4cc5c(cc4n3C)CCN(C[C@H](N)CF)C5=O)n(CC3CC3)c12` [Example 192, 6-((S)-2-amino-3-fluoropropyl)-2-(1-(cyclopropylmethyl)-7-(((R)-4-hydroxybutan-2-yl)oxy)-1H-indol-2-yl)-1-methyl-1,6,7,8-tetrahydro-5H-imidazo[4,5-g]isoquinolin-5-one] stands 101 to 500 nM; under `Cn1c(-c2cc3cccc(OC[C@@H]4CNCCO4)c3n2CC2CC2)nc2cc3c(cc21)CCN(C[C@H](N)CF)C3=O` [Example 159, 6-((S)-2-amino-3-fluoropropyl)-2-(1-(cyclopropyl-methyl)-7-(((S)-morpholin-2-yl)methoxy)-1H-indol-2-yl)-1-methyl-1,6,7,8-tetrahydro-5H-imidazo[4,5-g] isoquinolin-5-one], 501 to 1000 nM. In the case of `C[C@@H](N)CN1CCc2cc3c(cc2C1=O)nc(-c1cc2ccc(F)nc2n1CC1CC1)n3C` [Example 21, (R)-6-(2-aminopropyl)-2-(1-(cyclopropylmethyl)-6-fluoro-1H-pyrrolo[2,3-b]pyridin-2-yl)-1-methyl-1,6,7,8-tetrahydro-5H-imidazo[4,5-g]soquinolin-5-one], the IC50 was in the range of 101 to 500 nM. Turning to `Cn1c(-c2cc3cccc(OCCc4cc[nH]n4)c3n2CC2CC2)nc2cc3c(cc21)CCN(C[C@H](N)CF)C3=O` [Example 173, (S)-2-(7-(2-(1H-pyrazol-3-yl)ethoxy)-1-(cyclopropylmethyl)-1H-indol-2-yl)-6-(2-amino-3-fluoropropyl)-1-methyl-1,6,7,8-tetrahydro-5H-imidazo [4,5-g]isoquinolin-5-one], the IC50 was in the range of 11 to 100 nM.

As usually defined, the IC50 is the midpoint of a concentration-inhibition curve.

(Values after patent publication US20250346592A1 (Celgene Corporation, priority 2022, published 2025).)
